Experiment [1] deals with T1, μ-opioid receptor (Homo sapiens (Human), UniProt P35372). The experiment in a line: μ-opioid receptor radioligand dose-displacement binding assay ([3H]-diprenorphine). Conditions: binding affinity, [3H]-diprenorphine displacement; read-out: Ki (nM) Opioid Receptor μ. The protocol: μ-Opioid Receptor Binding Assay Procedures: Radioligand dose-displacement binding assays for μ-opioid receptors used 0.3 nM [^3H]-diprenorphine (Perkin Elmer, Shelton, Conn.), with […] membrane protein/well in a final volume of 500 μl binding buffer (10 mM MgCl2, 1 mM EDTA, 5% DMSO, 50 mM HEPES, pH 7.4). Reactions were carried out in the absence or presence of increasing concentrations of unlabeled naloxone. All reactions were conducted in 96-deep well polypropylene plates for 2 hours at room temperature. Binding reactions were terminated by rapid filtration onto 96-well Unifilter GF/C filter plates (Perkin Elmer, Shelton, Conn.), presoaked in 0.5% polyethylenimine using a 96-well tissue harvester (Perkin Elmer, Shelton, Conn.) followed by performing three filtration washes with 500 μl of ice-cold binding buffer. Filter plates were subsequently dried at 50° C. for 2-3 hours. BetaScint scintillation cocktail (Perkin Elmer, Shelton, Conn.) was added (50 μl/well), and plates were counted using a Packard Top-Count for 1 min/well. The data were analyzed using the one-site competition curve fitting functions in GraphPad PRISM™ v. 3.0 or higher (San Diego, Calif.), or an in-house function for one-site competition curve-fitting.

The target of experiment [2] is T1, μ-opioid receptor. The experiment in a line: μ-opioid receptor [35S]GTPγS functional assay, HEK-293 or CHO cells. In kind it is biochemical. Background: GTPγS resists hydrolysis and so accumulates on activated G proteins.
For experiment [3], the target named is κ-opioid receptor (Homo sapiens (Human), UniProt P41145). Briefly: κ-opioid receptor radioligand dose-displacement binding assay ([3H]-U69,593). Conditions: binding affinity, [3H]-U69,593 displacement. The method in brief: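 Competition binding with 0.4 nM [3H]-U69,593 and 15 μg membrane protein from HEK 293 cells expressing recombinant human κ receptor, in 50 mM Tris pH 7.4 with 5% DMSO, 1 h at about 25 °C. Nonspecific binding defined with 10 μM naloxone or U69,593; bound ligand collected by GF/C filtration and scintillation counting.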

The text below walks through data of patent US8980906B2, “Pyridonemorphinan analogs and biological activity on opioid receptors” (Purdue Pharma L.P., priority 2012, dated 2015).

The term Ki denotes a dissociation constant, usually derived from enzyme kinetics or from competition with a known ligand. Usually EC50 stands for the concentration needed to bring the measured effect to its halfway point. Higher therefore signals a less potent agent.

As for `NC(=O)c1cc2c([nH]c1=O)C[C@]13CCN(CC4CC4)[C@H](Cc4ccc(O)cc41)[C@]3(O)C2` [Compound 5, (6R,6aS,12aR)-15-(cyclopropylmethyl)-2,6a-dihydroxy-10-oxo-6,6a,7,10,11,12-hexahydro-5H-6,12a-(epiminoethano)naphtho[2,1-g]quinoline-9-carboxamide], the Ki came to 6.55 ± 2.06 nM in experiment [1] and 0.58 ± 0.15 nM in experiment [3]. This molecule also came in with an EC50 in experiment [2] of over 20000 nM.

For `O=C(O)c1cc2c([nH]c1=O)C[C@]13CCN(CC4CC4)[C@H](Cc4ccc(O)cc41)[C@]3(O)C2` [Compound 9, (6R,6aS,12aR)-15-(cyclopropylmethyl)-2,6a-dihydroxy-10-oxo-6,6a,7,10,11,12-hexahydro-5H-6,12a-(epiminoethano)naphtho[2,1-g]quinoline-9-carboxylic acid], the Ki in experiment [1] turned out to be 3.11 ± 0.9 nM; in experiment [3] it was 1.52 ± 0.18 nM. The same molecule registered an EC50 in experiment [2] of over 20000 nM.

For the molecule `O=C(O)c1cc2c([nH]c1=O)C[C@]13CCN(CC4CC4)[C@H](Cc4ccc(O)cc41)[C@@H]3C2` [Compound 11, (6R,6aR,12aS)-15-(cyclopropylmethyl)-2-hydroxy-10-oxo-6,6a,7,10,11,12-hexahydro-5H-6,12a-(epiminoethano)naphtho[2,1-g]quinoline-9-carboxylic acid], the Ki worked out at 0.52 ± 0.12 nM in experiment [1] and 18.5 ± 7.73 nM in experiment [3]. Also, the EC50 in experiment [2] is over 20000 nM.
